Patent US20240067657A1, “AMIDO-SUBSTITUTED PYRIDYL COMPOUNDS AND METHODS OF USE THEREOF FOR THE TREATMENT OF HERPESVIRUSES” (Merck Sharp & Dohme LLC, priority 2020, published 2024)
pEC50, pIC50: −log10 of the molar value. Read-outs that look alike come from different tables or passages of the source.

Key:
[1] = target: T1, Human cytomegalovirus DNA polymerase (Human cytomegalovirus, UniProt P08546); experiment: HCMV polymerase assay (AlphaLISA, IC50); format: biochemical; details: polymerase assay of Example 190
T1 construct: made in house; host or cells: SF21 insect cells (baculovirus vector)
T1 sequence (P08546 whole entry): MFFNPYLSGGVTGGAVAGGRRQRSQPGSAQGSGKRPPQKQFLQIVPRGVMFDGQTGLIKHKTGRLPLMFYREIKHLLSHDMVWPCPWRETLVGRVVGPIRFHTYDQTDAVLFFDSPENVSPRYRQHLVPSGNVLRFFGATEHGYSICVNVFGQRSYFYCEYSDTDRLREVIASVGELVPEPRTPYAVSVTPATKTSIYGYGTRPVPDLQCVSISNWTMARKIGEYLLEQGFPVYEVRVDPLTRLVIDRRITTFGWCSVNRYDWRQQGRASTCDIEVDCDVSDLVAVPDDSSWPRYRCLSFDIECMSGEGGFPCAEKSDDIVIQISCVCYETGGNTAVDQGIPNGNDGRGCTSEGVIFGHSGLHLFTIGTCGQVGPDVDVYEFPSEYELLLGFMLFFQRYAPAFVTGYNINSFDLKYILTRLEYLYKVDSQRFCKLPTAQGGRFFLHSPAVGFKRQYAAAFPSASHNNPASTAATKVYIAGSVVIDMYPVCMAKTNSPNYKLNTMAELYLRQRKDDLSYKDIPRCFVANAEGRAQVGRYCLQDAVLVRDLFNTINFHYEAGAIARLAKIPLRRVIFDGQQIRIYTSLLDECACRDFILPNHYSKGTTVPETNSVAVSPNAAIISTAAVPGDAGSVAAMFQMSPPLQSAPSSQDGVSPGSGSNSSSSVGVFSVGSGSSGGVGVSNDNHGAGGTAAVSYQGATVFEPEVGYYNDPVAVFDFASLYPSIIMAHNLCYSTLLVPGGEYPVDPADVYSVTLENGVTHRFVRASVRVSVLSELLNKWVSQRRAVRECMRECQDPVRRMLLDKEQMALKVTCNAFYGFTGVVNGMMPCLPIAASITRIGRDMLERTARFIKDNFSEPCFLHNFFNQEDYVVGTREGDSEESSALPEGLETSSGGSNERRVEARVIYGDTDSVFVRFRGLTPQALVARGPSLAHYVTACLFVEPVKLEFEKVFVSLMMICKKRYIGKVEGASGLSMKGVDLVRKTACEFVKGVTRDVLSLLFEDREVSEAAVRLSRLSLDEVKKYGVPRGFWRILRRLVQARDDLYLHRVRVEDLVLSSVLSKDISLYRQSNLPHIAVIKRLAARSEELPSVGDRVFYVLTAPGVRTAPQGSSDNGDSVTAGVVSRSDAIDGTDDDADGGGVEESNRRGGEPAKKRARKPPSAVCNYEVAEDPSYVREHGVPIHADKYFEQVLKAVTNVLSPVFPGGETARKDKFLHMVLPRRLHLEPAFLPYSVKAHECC
Summary of the method: (§1)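 Baculovirus-expressed polymerase (HCMV 0.2 nM, VZV 0.4 nM final) preincubated 30 min at room temperature with compound in pH 7.5 HEPES buffer; reaction started with 1.6 nM DIG-primer/template and nM dNTPs including biotin-dUTP, run 60 min at 37° C. Incorporation detected by AlphaLISA; IC50 from 4-parameter fit.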

[2] = test system: HSV-1 Strain F in Vero or MRC5 cells; experiment: Viral qPCR assay HSV-1 (V0/V1, V2/V3), EC50; format: cell-based
Summary of the method: (§2)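 Infected cells added to compounds (10-point 3-fold series), ~72 h at 37 °C, then lysed; viral genomes by TaqMan qPCR against plasmid standard, normalized to PPIA in V0/V1 only, EC50 from 4-parameter fit. HCMV AD169, 0.05-0.1 pfu/cell, ± 50% FBS; VZV 0.04-0.1 pfu/cell; HSV-1 F 0.0005-0.004 pfu/cell.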

[3] = test system: VZV in MeWo or MRC5 cells; experiment: Viral qPCR assay VZV (V0/V1, V2/V3), EC50; format: cell-based
Summary of the method: as §2

[4] = test system: HCMV Strain AD169 in MRC-5 cells; experiment: Viral qPCR assay HCMV (V0/V1, V2/V3), EC50; format: cell-based
Summary of the method: as §2

[5] = target: T2, varicella zoster virus DNA polymerase (Varicella-zoster virus, UniProt P09252); experiment: VZV polymerase assay (AlphaLISA, IC50); format: biochemical; details: polymerase assay of Example 190
T2 construct: made in house; host or cells: SF21 insect cells (baculovirus vector)
T2 sequence (P09252 whole entry): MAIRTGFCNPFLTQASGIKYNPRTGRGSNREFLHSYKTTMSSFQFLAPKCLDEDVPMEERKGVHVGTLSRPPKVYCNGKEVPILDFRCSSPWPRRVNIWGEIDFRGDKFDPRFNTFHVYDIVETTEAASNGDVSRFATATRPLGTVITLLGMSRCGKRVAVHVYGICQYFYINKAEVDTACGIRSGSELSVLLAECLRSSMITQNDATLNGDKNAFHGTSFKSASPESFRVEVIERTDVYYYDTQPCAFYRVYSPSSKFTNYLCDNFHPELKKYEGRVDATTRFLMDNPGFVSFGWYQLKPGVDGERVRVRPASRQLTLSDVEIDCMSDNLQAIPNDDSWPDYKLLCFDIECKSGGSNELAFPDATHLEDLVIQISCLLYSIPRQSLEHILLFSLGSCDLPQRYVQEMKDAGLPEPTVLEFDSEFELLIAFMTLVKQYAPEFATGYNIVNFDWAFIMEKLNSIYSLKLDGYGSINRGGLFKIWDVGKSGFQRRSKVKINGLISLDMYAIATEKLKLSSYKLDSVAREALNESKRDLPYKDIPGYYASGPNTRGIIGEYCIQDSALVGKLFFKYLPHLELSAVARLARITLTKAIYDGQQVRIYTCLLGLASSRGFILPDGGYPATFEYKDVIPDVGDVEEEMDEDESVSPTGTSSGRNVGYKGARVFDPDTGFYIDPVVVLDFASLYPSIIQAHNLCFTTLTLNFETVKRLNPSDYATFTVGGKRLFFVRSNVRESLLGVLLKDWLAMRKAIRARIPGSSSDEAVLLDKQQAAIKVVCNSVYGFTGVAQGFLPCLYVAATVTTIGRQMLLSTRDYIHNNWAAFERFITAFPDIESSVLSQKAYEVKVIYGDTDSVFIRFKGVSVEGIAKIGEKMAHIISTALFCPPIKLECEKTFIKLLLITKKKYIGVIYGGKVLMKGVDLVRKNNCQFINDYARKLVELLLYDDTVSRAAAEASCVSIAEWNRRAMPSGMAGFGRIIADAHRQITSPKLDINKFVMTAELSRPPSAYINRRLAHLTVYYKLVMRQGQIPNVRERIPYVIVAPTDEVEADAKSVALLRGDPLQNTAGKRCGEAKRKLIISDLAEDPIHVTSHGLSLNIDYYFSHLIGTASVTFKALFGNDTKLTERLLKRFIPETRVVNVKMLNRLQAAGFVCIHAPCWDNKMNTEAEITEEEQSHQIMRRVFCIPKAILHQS
Summary of the method: as §1

[6] = Human alphaherpesvirus 1, MRC5, MRC5 cells, 10%, read-out: HSV1 Cell (EC50) MRC5 10%
[7] = Human alphaherpesvirus 3, MRC5, MRC5 cells, 10%, read-out: VZV Cell (EC50) MRC5 10%
[8] = Human betaherpesvirus 5, AD169, MRC5, viral qPCR assay of Example 191, read-out: HCMV Cell (EC50)
[9] = Human alphaherpesvirus 1, Vero, VERO cells, 10%, read-out: HSV1 Cell (EC50) VERO 10%
[10] = Human alphaherpesvirus 3, MeWo, MEWO cells, 10%, read-out: VZV Cell (EC50) MEWO 10%

SMILES	pIC50 [1]	pIC50 [5]	pEC50 [2, 6]	pEC50 [3, 7]	pEC50 [4, 8]	pEC50 [2, 9]	pEC50 [3, 10]	pEC50 ([2]; Human alphaherpesvirus 1, Vero, read-out: HSV1 Cell (EC50) VERO 10%)	pEC50 ([3]; Human alphaherpesvirus 3, MeWo, read-out: VZV Cell (EC50) MEWO 10%)	pEC50 ([4]; Human betaherpesvirus 5, AD169, MRC5, read-out: HCMV Cell (EC50))
CC(=O)N1CCC(Oc2cc(C(=O)NCc3ccc(Cl)cc3)ncc2-c2nnc(C)s2)CC1 [Compound 54]	7.21	7.83	6.62	6.74	6.11					
CC(C)(C)n1cc(-c2cnc(C(=O)NCc3ccc(Cl)cc3)cc2O[C@H]2CCN3C(=O)OC[C@@H]3C2)cn1 (racemic) [Compound 12]	7.15	7.16			5.94	6.05	6.01			
O=C(NCc1ccc(Cl)cc1)c1cc(O[C@H]2CCN3C(=O)NC[C@@H]3C2)c(-c2cnn(C(F)F)c2)cn1 (racemic) [Compound 163]	6.69	6.98			5.56	6.12	6.23			
O=C(NCc1ccc(Cl)cc1)c1cc(O[C@H]2CCN3C(=O)OC[C@@H]3C2)c(CN2CCCOCC2)cn1 [Compound 138]	7.18	7.86			6.53	6.38	6.70			
Cc1c[n+]([O-])c(C(=O)NCc2ccc(Cl)cc2)cc1O[C@H]1CCN2C(=O)OC[C@@H]2C1 [Compound 130]	7.05	7.36			6.25	6.30	6.60			
O=C(NCc1ccc(Cl)cc1)c1cc(O[C@H]2CCN3C(=O)CCC[C@@H]3C2)c(-c2cnn(C(F)F)c2)cn1 (single isomer, unassigned) [Compound 161-1]	6.89	7.33			5.88	6.34	6.68			
C[C@@H]1CN(C)CCN1c1cc(C(=O)NCc2ccc(Cl)cc2)ncc1OCC(F)(F)F [Compound 176]	6.66	6.94						5.66	5.91	5.61
CC(=O)N1CCC(Oc2cc(C(=O)NCc3ccc(Cl)cc3)ncc2-c2cnc(C)o2)CC1 [Compound 66]	7.32	7.73	6.62	6.54	6.60					
COCCn1cc(-c2cnc(C(=O)NCc3ccc(Cl)cc3)cc2O[C@H]2CCN3C(=O)OC[C@@H]3C2)cn1 [Compound 31]	8.07	8.18	6.65	6.59	6.93	6.51	6.95			
CC(=O)N1CCC(Oc2cc(C(=O)NCc3ccc(Cl)cc3)ncc2-c2cc[nH]n2)CC1 [Compound 64]	6.79	7.19			5.99	5.93	6.36			
CC(=O)N1CCC(Oc2cc(C(=O)NCc3ccc(Cl)cc3)[n+]([O-])cc2-c2cnn(C(F)F)c2)CC1 [Compound 132]	6.79	7.39			5.88	6.40	6.29			
O=C(NCc1ccc(Cl)cc1)c1cc(O[C@H]2CCN3C(=O)OC[C@@H]3C2)c(-c2cnn(CC(F)F)c2)cn1 [Compound 27]	7.85	7.90			6.86	6.52	6.60			
CC(=O)N1CCC(Oc2cc(C(=O)NCc3ccc(Cl)cc3)ncc2-c2cnn(CCO)c2)CC1 [Compound 62]	6.65	7.17			5.80	5.31	6.79			
CC(=O)N1CCC(Oc2cc(C(=O)NCc3ccc(Cl)cc3)ncc2-c2cnco2)CC1 [Compound 65]	7.45	7.93	6.54	6.14	6.11					
Cn1cc(-c2cnc(C(=O)NCc3ccc(Cl)cc3)cc2OC2CCN3C(=O)OCC3(C)C2)cn1 (centres unmarked) [Compound 159]	7.23	7.71			6.36	6.48	6.56			

Continued, in another order:

pIC50 [1]	pIC50 [5]	SMILES	pEC50 [2, 6]	pEC50 [3, 7]	pEC50 [4, 8]	pEC50 [2, 9]	pEC50 [3, 10]	pEC50 ([2]; Human alphaherpesvirus 1, Vero, read-out: HSV1 Cell (EC50) VERO 10%)	pEC50 ([3]; Human alphaherpesvirus 3, MeWo, read-out: VZV Cell (EC50) MEWO 10%)	pEC50 ([4]; Human betaherpesvirus 5, AD169, MRC5, read-out: HCMV Cell (EC50))
7.62	8.51	COC(C)(C)Cc1cnc(C(=O)NCc2ccc(Cl)cc2)cc1O[C@H]1CCN2C(=O)OC[C@@H]2C1 [Compound 107]	6.32	6.23	6.26					
7.52	7.55	N#Cc1cnc(C(=O)NCc2ccc(Cl)cc2)cc1O[C@H]1CCN2C(=O)OC[C@@H]2C1 [Compound 127]	6.10	5.95	6.46	6.63	6.62			
8.01	7.79	Cn1ccc(-c2cnc(C(=O)NCc3ccc(Cl)cc3)cc2O[C@H]2CCN3C(=O)OC[C@@H]3C2)n1 [Compound 30]	7.11	6.92	6.94	6.88	7.09			
7.81	7.98	O=C(NCc1ccc(Cl)cc1)c1cc(O[C@H]2CCN3C(=O)OC[C@@H]3C2)c(-c2cc[nH]n2)cn1 [Compound 18]	6.71	6.90	6.92	6.08	6.41			
7.79	8.59	COC1CN(c2cnc(C(=O)NCc3ccc(Cl)cc3)cc2O[C@H]2CCN3C(=O)OC[C@@H]3C2)C1 [Compound 120]	6.36	6.36	6.68					
6.91	7.02	CC1(O)CCN(Cc2cnc(C(=O)NCc3ccc(Cl)cc3)cc2O[C@H]2CCN3C(=O)OC[C@@H]3C2)C1 (mixture of isomers) [Compound 134]		5.40	5.71	5.23				
7.76	8.04	O=C(NCc1ccc(Cl)cc1)c1cc(O[C@H]2CCN3C(=O)OC[C@@H]3C2)c(-c2cnn(C3CC3)c2)cn1 [Compound 19]			6.67	6.50	6.98			
6.76	6.88	O=C(NCc1ccc(Cl)cc1)c1cc(O[C@H]2CCN3C(=O)OC[C@@H]3C2)c(CCn2cccn2)cn1 [Compound 115]			5.77	5.89	6.05			
8.28	8.42	Cc1ncc(-c2cnc(C(=O)NCc3ccc(Cl)cc3)cc2O[C@H]2CCN3C(=O)OC[C@@H]3C2)s1 [Compound 42]	7.29	7.10	7.23	7.39	7.31			
7.59	7.78	O=C(NCc1ccc(Cl)cc1)c1cc(O[C@H]2CCN3C(=O)OC[C@@H]3C2)c(OCC(F)(F)F)cn1 [Compound 126]	5.71	5.84	6.24	6.81	6.31			
8.56	9.26	Cc1ncc(-c2cnc(C(=O)NCc3ccc(Cl)cc3)cc2O[C@H]2CCN3C(=O)OC[C@@H]3C2)o1 [Compound 32]	7.13	6.97	7.11					
7.17	7.39	N#Cc1cnc(C(=O)NCc2ccc(Cl)cc2)cc1O[C@H]1CCN2C(=O)CC[C@@H]2C1 (racemic) [Compound 158]			5.98	6.33	6.24			
7.99	8.90	Cc1nsc(-c2cnc(C(=O)NCc3ccc(Cl)cc3)cc2O[C@H]2CCN3C(=O)OC[C@@H]3C2)n1 [Compound 39]	7.22	7.01	7.06					
